Molecular target: T1, MyD88^TIR (Homo sapiens, UniProt Q99836)
T1 construct: MyD88 (residues 148–296); 6xHis; made in house; host or cells: E. coli BL21 (DE3)
Experiment: T‐Surf phage library (P8 and P3) selection against MyD88^TIR, four rounds, NGS read counts
Assay type: binding
Conditions: for P8_MyD88 Rank (after) / P8_MyD88 Rank (before): P8 library; for Population: 4th round of selection against MyD88 TIR, share of NGS reads; for P3_MyD88 Rank (after) / P3_MyD88 Rank (before): P3 library
Method in brief: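 P8 and P3 T‐Surf libraries panned against plate-coated TIR domains (5 µg mL^−1), 1 h binding at RT, acid elution and TG1/helper-phage amplification per round. After four rounds, pools were PCR-barcoded and sequenced (NovaSeq, 100 bp paired-end, Phred ≥30); peptides ranked by read counts.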

[1] = selection against MyD88 TIR, rank by count after grouping
[2] = selection against MyD88 TIR, rank by count before grouping
[3] = P3_MyD88 pool: P3 T-Surf phage library
[4] = P8_MyD88: rank by NGS read count after grouping
[5] = P8_MyD88: rank by NGS read count before grouping
[6] = 4R selection against MyD88, rank after grouping
[7] = 4R selection against MyD88, rank before grouping
[8] = P3_MyD88: rank by count after grouping
[9] = P3_MyD88: rank by count before grouping
[10] = P8_MyD88: rank by count after grouping
[11] = P8_MyD88: rank by count before grouping
[12] = P8_MyD88 pool: P8 T-Surf phage library
[13] = selection against MyD88, rank after grouping
[14] = selection against MyD88, rank before grouping
[15] = selection against MyD88, rank by count after grouping
[16] = selection against MyD88, rank by count before grouping

T1 sequence (Q99836 148-296): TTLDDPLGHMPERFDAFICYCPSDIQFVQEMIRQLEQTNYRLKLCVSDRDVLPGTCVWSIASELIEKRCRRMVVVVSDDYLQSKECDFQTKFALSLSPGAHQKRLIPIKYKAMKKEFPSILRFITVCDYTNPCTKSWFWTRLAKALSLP

## DPQDLAWSYERLVSLF
[1]
  P8_MyD88 Rank (after): 255
[2]
  P8_MyD88 Rank (before): 2732

## NYASSPWALDELVKIF
[1]
  P8_MyD88 Rank (after): 197
[2]
  P8_MyD88 Rank (before): 295

## LVAHEISKKMKIFETI
[3]
  Population: 0.00466%

## WDFGTAGKNPGSAWHH
[4]
  Rank (after): 910
[5]
  Rank (before): 1573

## IDDDHLYAALVQAGIL
[6]
  P8_MyD88 Rank (after): 639
[7]
  P8_MyD88 Rank (before): 3622

## YRKWGYLRIWDRWRFA
[8]
  Rank (after): 411
[9]
  Rank (before): 1613

## WLESVLEDKFGYSLAL
[10]
  Rank (after): 110
[11]
  Rank (before): 116
[12]
  Population: 0.02%

## YASSSWYRFELVDILW
[4]
  Rank (after): 973
[5]
  Rank (before): 1874

## YTALTNSGFSEENLF
[6]
  P3_MyD88 Rank (after): 668
[7]
  P3_MyD88 Rank (before): 1683

## DPQLLVCFYERVVRMF
[4]
  Rank (after): 1010
[5]
  Rank (before): 3025

## NSFREGLWRLVELSKK
[13]
  P3_MyD88 Rank (after): 535
[14]
  P3_MyD88 Rank (before): 3557

## LGYRWLDGEYFGGIED
[10]
  Rank (after): 462
[11]
  Rank (before): 3223

## DFLKWDNEAIMIKKIA
[4]
  Rank (after): 993
[5]
  Rank (before): 2369

## YAFTGHLHRYIEQRSG
[6]
  P3_MyD88 Rank (after): 610
[7]
  P3_MyD88 Rank (before): 1533

## WALDELLQILHAREL
[13]
  P8_MyD88 Rank (after): 577
[14]
  P8_MyD88 Rank (before): 1451

## DPQALAWFYERLVSLF
[1]
  P8_MyD88 Rank (after): 256
[2]
  P8_MyD88 Rank (before): 2682

## WALAELLQLLHARELF
[10]
  Rank (after): 395
[11]
  Rank (before): 1410

## VANILGYHWFDWEYFVVIGD
[4]
  Rank (after): 875
[5]
  Rank (before): 2171

## SSFREGLRRLLELSKK
[3]
  Population: 0.00291%

## QYSDTLLEHTSKFPA
[13]
  P3_MyD88 Rank (after): 492
[14]
  P3_MyD88 Rank (before): 2837

## SSFSEGLWRLLELRKK
[1]
  P3_MyD88 Rank (after): 191
[2]
  P3_MyD88 Rank (before): 3251

## KEVEGWRNALTNVASL
[6]
  P3_MyD88 Rank (after): 617
[7]
  P3_MyD88 Rank (before): 3650

## DPLALEWYYERPFSQM
[13]
  P8_MyD88 Rank (after): 559
[14]
  P8_MyD88 Rank (before): 2612

## SSLREGLWRLLELSKK
[3]
  Population: 0.00291%

## LSEESWRQALEKAGKL
[1]
  P3_MyD88 Rank (after): 202
[2]
  P3_MyD88 Rank (before): 2375

## YLKWGYPWFWDRLP
[8]
  Rank (after): 142
[9]
  Rank (before): 572

## DHQLDLPRCKAIKPEILG
[13]
  P3_MyD88 Rank (after): 482
[14]
  P3_MyD88 Rank (before): 2062

## DPQDLEWNFERPVSLF
[4]
  Rank (after): 972
[5]
  Rank (before): 2856

## YTALSYRGFHDFRGNE
[13]
  P3_MyD88 Rank (after): 504
[14]
  P3_MyD88 Rank (before): 1638

## DSHESEIIKEIVDTIV
[8]
  Rank (after): 163
[9]
  Rank (before): 967

## WDFSGNMKQALDRLCY
[6]
  P8_MyD88 Rank (after): 613
[7]
  P8_MyD88 Rank (before): 1571

## PSEVRVVDDGSVSPLEM
[1]
  P3_MyD88 Rank (after): 211
[2]
  P3_MyD88 Rank (before): 1126

## YELDFSHFWLFEGPAG
[1]
  P8_MyD88 Rank (after): 245
[2]
  P8_MyD88 Rank (before): 538

## DPQDQDRFYERLVSLF
[6]
  P8_MyD88 Rank (after): 591
[7]
  P8_MyD88 Rank (before): 2968

## DFSHFWLFEAGGDAD
[4]
  Rank (after): 946
[5]
  Rank (before): 2377

## KEVEGWRDALTKVACR
[8]
  Rank (after): 109
[9]
  Rank (before): 1305

## YASSSWALEELVKIMEAM
[10]
  Rank (after): 454
[11]
  Rank (before): 1898

## YTALTNSGFHIFSANG
[13]
  P3_MyD88 Rank (after): 497
[14]
  P3_MyD88 Rank (before): 1664

## PQDLAWYYVRLVSLIL
[6]
  P8_MyD88 Rank (after): 583
[7]
  P8_MyD88 Rank (before): 3423

## WDFASSSWALDELLRILY
[13]
  P8_MyD88 Rank (after): 550
[14]
  P8_MyD88 Rank (before): 1585

## SSFREGLWRLLELSQN
[13]
  P3_MyD88 Rank (after): 544
[14]
  P3_MyD88 Rank (before): 3171

## HLLKEFDKKLIPRLK
[15]
  P3_MyD88 Rank (after): 685
[16]
  P3_MyD88 Rank (before): 2792

## SSYRQGLWRLLELSKK
[13]
  P3_MyD88 Rank (after): 485
[14]
  P3_MyD88 Rank (before): 3267

## SELRVVDDGSVSPRET
[15]
  P3_MyD88 Rank (after): 741
[16]
  P3_MyD88 Rank (before): 3045

## LKVENWRQAMEKAGKL
[8]
  Rank (after): 176
[9]
  Rank (before): 2525

## SEKYAKSPWAKVGLVL
[13]
  P3_MyD88 Rank (after): 548
[14]
  P3_MyD88 Rank (before): 3001

## RISAFHQQLLMALKTQ
[15]
  P3_MyD88 Rank (after): 706
[16]
  P3_MyD88 Rank (before): 2609

## SRFREGLWRLLKLSKK
[15]
  P3_MyD88 Rank (after): 715
[16]
  P3_MyD88 Rank (before): 3278

## ELDFSHFWLFDGHATGEA
[12]
  Population: 0.0177%

## YTALANSGFHTFHDND
[6]
  P3_MyD88 Rank (after): 613
[7]
  P3_MyD88 Rank (before): 1634

Reference: PMC11714206, “Massively Parallel Screening of Toll/Interleukin‐1 Receptor (TIR)‐Derived Peptides Reveals Multiple Toll‐Like Receptors (TLRs)‐Targeting Immunomodulatory Peptides” (Advanced Science, 2024)
